Data from the supplement of paper PMC11061612.

What was measured:
Capivasertib = compound: C1CN(CCC1(C(=O)N[C@@H](CCO)C2=CC=C(C=C2)Cl)N)C3=NC=NC4=C3C=CN4 [Capivasertib]; conditions: max 10 µM
Procedure, shortened: (§1)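 Cancer cell lines in 1536-well plates (7.5 μl DMEM/F12 or RPMI, 10% FBS) were held 24 hours at 37°C and 5% CO2 and then dosed for 72 hours at a final DMSO of typically 0.2%. Viability was taken from CellTiter-Glo 2.0 luminescence, scaled between blank-well and DMSO-well means. Curves were fitted as two-parameter logistic models with a non-linear mixed effects model, from which the single-agent IC50 was taken.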

AZD1775 = compound: C=CCn1c(=O)c2cnc(Nc3ccc(N4CCN(C)CC4)cc3)nc2n1-c1cccc(C(C)(C)O)n1 [AZD1775]; conditions: max 3 µM
Procedure, shortened: as §1

Trametinib = compound: CC(=O)Nc1cccc(-n2c(=O)n(C3CC3)c(=O)c3c(Nc4ccc(I)cc4F)n(C)c(=O)c(C)c32)c1 [Trametinib]; conditions: max 1 µM
Procedure, shortened: as §1

Palbociclib = compound: CC(=O)c1c(C)c2cnc(Nc3ccc(N4CCNCC4)cn3)nc2n(C2CCCC2)c1=O [Palbociclib]; conditions: max 10 µM
Procedure, shortened: as §1

AZD1390 = compound: CC(C)n1c(=O)n(C)c2cnc3cc(F)c(-c4ccc(OCCCN5CCCCC5)nc4)cc3c21 [AZD1390]; conditions: max 0.3 µM
Procedure, shortened: as §1

Venetoclax = compound: CC1(C)CCC(CN2CCN(c3ccc(C(=O)NS(=O)(=O)c4ccc(NCC5CCOCC5)c([N+](=O)[O-])c4)c(Oc4cnc5[nH]ccc5c4)c3)CC2)=C(c2ccc(Cl)cc2)C1 [Venetoclax]; conditions: max 1 µM
Procedure, shortened: as §1

Dasatinib = compound: CC1=C(C(=CC=C1)Cl)NC(=O)C2=CN=C(S2)NC3=CC(=NC(=N3)C)N4CCN(CC4)CCO [Dasatinib]; conditions: max 2 µM
Procedure, shortened: as §1

SG3199 = compound: CC1=CN2[C@@H](C1)C=NC3=CC(=C(C=C3C2=O)OC)OCCCCCOC4=C(C=C5C(=C4)N=C[C@@H]6CC(=CN6C5=O)C)OC [SG3199]; conditions: max 0.001 µM
Procedure, shortened: as §1

AZD2811 = compound: CCN(CCO)CCCOc1ccc2c(Nc3cc(CC(=O)Nc4cccc(F)c4)[nH]n3)ncnc2c1 [AZD2811]; conditions: max 1 µM
Procedure, shortened: as §1

SN-38 = compound: CCc1c2c(nc3ccc(O)cc13)-c1cc3c(c(=O)n1C2)COC(=O)[C@]3(O)CC [SN-38]; conditions: max 0.3 µM
Procedure, shortened: as §1

AZD0156 = compound: CN(C)CCCOc1ccc(-c2ccc3ncc4c(c3c2)n(C2CCOCC2)c(=O)n4C)cn1 [AZD0156]; conditions: max 3 µM
Procedure, shortened: as §1

AZD4320 = compound: CN(CC[C@H](CSC1=CC=CC=C1)NC2=C(C=C(C=C2)S(=O)(=O)NC(=O)C3=CC=C(C=C3)N4CCC(CC4)[C@H](C5=CC=CC=C5C6=CC=C(C=C6)Cl)O)S(=O)(=O)C(F)(F)F)CCO [AZD4320]; conditions: max 1 µM
Procedure, shortened: as §1

Alisertib = compound: COc1cc(Nc2ncc3c(n2)-c2ccc(Cl)cc2C(c2c(F)cccc2OC)=NC3)ccc1C(=O)O [Alisertib]; conditions: max 10 µM
Procedure, shortened: as §1

Gefitinib = compound: COc1cc2ncnc(Nc3ccc(F)c(Cl)c3)c2cc1OCCCN1CCOCC1 [Gefitinib]; conditions: max 10 µM
Procedure, shortened: as §1

Prexasertib = compound: COc1cccc(OCCCN)c1-c1cc(Nc2cnc(C#N)cn2)n[nH]1 [Prexasertib]; conditions: max 1 µM
Procedure, shortened: as §1

Doxorubicin = compound: COc1cccc2c1C(=O)c1c(O)c3c(c(O)c1C2=O)C[C@@](O)(C(=O)CO)C[C@@H]3O[C@H]1C[C@H](N)[C@H](O)[C@H](C)O1 [Doxorubicin]; conditions: max 1 µM
Procedure, shortened: as §1

AZD5153 = compound: COc1nnc2ccc(N3CCC(c4ccc(OCCN5CCN(C)C(=O)[C@H]5C)cc4)CC3)nn12 [AZD5153]; conditions: max 1 µM
Procedure, shortened: as §1

Lapatinib = compound: CS(=O)(=O)CCNCc1ccc(-c2ccc3ncnc(Nc4ccc(OCc5cccc(F)c5)c(Cl)c4)c3c2)o1 [Lapatinib]; conditions: max 10 µM
Procedure, shortened: as §1

AZD8186 = compound: C[C@@H](Nc1cc(F)cc(F)c1)c1cc(C(=O)N(C)C)cc2c(=O)cc(N3CCOCC3)oc12 [AZD8186]; conditions: max 3 µM
Procedure, shortened: as §1

Crizotinib = compound: C[C@@H](Oc1cc(-c2cnn(C3CCNCC3)c2)cnc1N)c1c(Cl)ccc(F)c1Cl [Crizotinib]; conditions: max 10 µM
Procedure, shortened: as §1

Savolitinib = compound: C[C@@H](c1ccc2nccn2c1)n1nnc2ncc(-c3cnn(C)c3)nc21 [Savolitinib]; conditions: max 1 µM
Procedure, shortened: as §1

AZD6738 = compound: C[C@@H]1COCCN1C2=NC(=NC(=C2)C3(CC3)[S@](=N)(=O)C)C4=C5C=CNC5=NC=C4 [AZD6738]; conditions: max 10 µM
Procedure, shortened: as §1

AZD5991 = compound: Cc1c2c(nn1C)CSCc1cc(n(C)n1)CSc1cc(c3ccccc3c1)OCCCc1c(C(=O)O)n(C)c3c-2c(Cl)ccc13 [AZD5991]; conditions: max 1 µM
Procedure, shortened: as §1

AZD7648 = compound: Cc1cc2ncnn2cc1Nc1ncc2c(n1)n(C1CCOCC1)c(=O)n2C [AZD7648]; conditions: max 10 µM
Procedure, shortened: as §1

Taselisib = compound: Cc1nc(-c2cn3c(n2)-c2ccc(-c4cnn(C(C)(C)C(N)=O)c4)cc2OCC3)n(C(C)C)n1 [Taselisib]; conditions: max 10 µM
Procedure, shortened: as §1

Selumetinib = compound: Cn1cnc2c(F)c(Nc3ccc(Br)cc3Cl)c(C(=O)NOCCO)cc21 [Selumetinib]; conditions: max 10 µM
Procedure, shortened: as §1

Olaparib = compound: O=C(c1cc(Cc2n[nH]c(=O)c3ccccc23)ccc1F)N1CCN(C(=O)C2CC2)CC1 [Olaparib]; conditions: max 10 µM
Procedure, shortened: as §1

MK-2206 = compound: NC1(c2ccc(-c3nc4ccn5c(=O)[nH]nc5c4cc3-c3ccccc3)cc2)CCC1 [MK-2206]; conditions: max 10 µM
Procedure, shortened: as §1

Cell Line | IC50, cell viability 72 h (Capivasertib) | IC50, cell viability 72 h (AZD1775) | IC50, cell viability 72 h (Trametinib) | IC50, cell viability 72 h (Palbociclib) | IC50, cell viability 72 h (AZD1390) | IC50, cell viability 72 h (Venetoclax) | IC50, cell viability 72 h (Dasatinib) | IC50, cell viability 72 h (SG3199) | IC50, cell viability 72 h (AZD2811) | IC50, cell viability 72 h (SN-38) | IC50, cell viability 72 h (AZD0156) | IC50, cell viability 72 h (AZD4320) | IC50, cell viability 72 h (Alisertib) | IC50, cell viability 72 h (Gefitinib) | IC50, cell viability 72 h (Prexasertib) | IC50, cell viability 72 h (Doxorubicin) | IC50, cell viability 72 h (AZD5153) | IC50, cell viability 72 h (Lapatinib) | IC50, cell viability 72 h (AZD8186) | IC50, cell viability 72 h (Crizotinib) | IC50, cell viability 72 h (Savolitinib) | IC50, cell viability 72 h (AZD6738) | IC50, cell viability 72 h (AZD5991) | IC50, cell viability 72 h (AZD7648) | IC50, cell viability 72 h (Taselisib) | IC50, cell viability 72 h (Selumetinib) | IC50, cell viability 72 h (Olaparib) | IC50, cell viability 72 h (MK-2206)
JHH-6 (Hepatocellular Carcinoma) | > 10000 nM | > 3000 nM | > 1000 nM | > 10000 nM | > 300 nM | > 1000 nM | > 2000 nM | > 1 nM | > 1000 nM | > 300 nM | > 3000 nM | > 1000 nM | > 10000 nM | > 10000 nM | > 1000 nM | > 1000 nM | 922 nM | > 10000 nM | > 3000 nM | > 10000 nM | > 1000 nM | > 10000 nM | > 1000 nM | > 10000 nM | > 10000 nM | > 10000 nM | > 10000 nM | 
KG-1 (Acute Myeloid Leukemia) | > 10000 nM | 662 nM | > 1000 nM | > 10000 nM | > 300 nM | 550 nM | > 2000 nM | > 1 nM | > 1000 nM | 13.2 nM | > 3000 nM | 96.9 nM | 774 nM | > 10000 nM | 45.8 nM | > 1000 nM | 216 nM | > 10000 nM | > 3000 nM | > 10000 nM | > 1000 nM | 5630 nM | 83.7 nM | > 10000 nM | > 10000 nM | > 10000 nM | > 10000 nM | 
MCF7 (Breast Carcinoma) | 8440 nM | > 3000 nM | > 1000 nM | > 10000 nM | > 300 nM | > 1000 nM | > 2000 nM | > 1 nM | > 1000 nM | 53.2 nM | > 3000 nM | > 1000 nM | > 10000 nM | > 10000 nM | > 1000 nM | > 1000 nM | 343 nM | > 10000 nM | > 3000 nM | > 10000 nM | > 1000 nM | 6710 nM | 838 nM | > 10000 nM | 1390 nM | > 10000 nM | > 10000 nM | 8680 nM
MES-SA (Other Solid Carcinomas) | > 10000 nM | 707 nM | > 1000 nM | > 10000 nM | > 300 nM | > 1000 nM | > 2000 nM | > 1 nM | > 1000 nM | 28.2 nM | > 3000 nM | > 1000 nM | 856 nM | > 10000 nM | 80.1 nM | 268 nM | > 1000 nM | > 10000 nM | > 3000 nM | > 10000 nM | > 1000 nM | > 10000 nM | > 1000 nM | > 10000 nM | 1180 nM | > 10000 nM | > 10000 nM | 
